Test [1] relates to P. falciparum. The following applies: read-out: EC50 against P. falciparum; cited from earlier work.
Test [2] has as its system multi-drug-resistant P. falciparum line Dd2. In kind it is cell-based, Plasmodium falciparum.

Molecules are shown by their SMILES. Where a SMILES comes first, the peptide text is derived from it. [ ]: non-standard residue; d: D form. The star is where a group is joined. X1 = CC(C)C[C@@H](C[N+]1=C2CCCN2CCC1)N*; dIva = CC[C@@](C)(N)C(=O)O; Pip = O=C(O)[C@@H]1CCCCN1; Aib = CC(C)(N)C(=O)O; βAla = NCCC(=O)O

Turning to `CC[C@H](C)[C@@H](C(=O)O[C@@H](CC(C)C)C(=O)N[C@@H](CC(C)C)C(=O)N[C@@H](C)/C=C/C(=O)N1C(=O)C=C(OC)[C@@H]1C)N(C)C` [Gallinamide A], the EC50 (in general, the midpoint of the concentration-response curve) in test [1] was 8.4 µM.
Take `CC[C@@](C)(NC(=O)[C@H](CC(C)C)NC(=O)[C@H](C)NC(=O)C(C)(C)NC(=O)[C@@H]1CCCCN1C(=O)C(C)(C)NC(=O)C(C)(C)NC(=O)CNC(=O)CCNC(=O)[C@H](CC(C)C)NC(=O)C(C)(C)NC(=O)C(C)(C)NC(=O)[C@@H]1CCCCN1C(=O)C(C)(C)NC(=O)[C@@H]1CCCCN1C(C)=O)C(=O)N[C@@H](CC(C)C)C[N+]1=C2CCCN2CCC1` [efrapeptin F (53), efrapeptin F] (Ac-[Pip][Aib][Pip][Aib][Aib]L[βAla]G[Aib][Aib][Pip][Aib]AL[dIva]-X1; N-terminus and C-terminus assumed): the “antiplasmodial activity in words” value in test [2] is on record as “submicromolar”.
